Experimental data as given in patent US20060154235A1, “Human hepatocyte-like cells and uses thereof” (Takahiro Ochiya, priority 2005, published 2006).

Test system: CYP1A1
Assay: P450-GLO activity assay, CYP1A1 induction in hMSC-derived hepatocytes
Conditions: inducer for 2 days

## Cc1ccc2cc3c(ccc4ccccc43)c3c2c1CC3 [3-methylcholanthrene]
  CYP1A1 activity after inducer treatment: induced
